Test results published in a melting point compilation (Tetko et al.; mined from patent text by program, amines drawn as free bases though some values may be those of a salt).

Q: Which melting point does the source give for S=C1Nc2ccc(Cl)cc2CS1 here?
A: 217 to 222 °C

Q: For CCCOc1nccc2c1C(c1ccccc1C(F)(F)F)C(C(=O)OCC)=C(C)N2 (stereo unspecified), which melting point is on record?
A: 115 to 117 °C

Q: For COC1=CC(=O)c2ccccc2C1=O, which melting point is on record?
A: 182 to 183 °C

Q: For CCCOCCOc1ccc(-c2ccc3c(c2)C=C(C(=O)OC)CCS3(=O)=O)cc1, which melting point is on record?
A: 105 to 107 °C

Q: Which melting point does the source give for Cc1ccc(S(=O)(=O)OC(C#N)(c2ccccc2)C(F)(F)F)cc1 (stereo unspecified) here?
A: 70 °C

Q: For CCN(CC)CCn1nc2c3c(cccc31)Sc1ccccc1-2, which melting point is on record?
A: 49 to 50.5 °C

Q: Which melting point does the source give for O=C(C=CCN1CCN(C[C@H]2CCC(=O)O2)CC1)Nc1cc2c(Nc3ccc(F)c(Cl)c3)ncnc2cc1OCC1CC1 here?
A: 145 to 150 °C

Q: Which melting point does the source give for O=C(Nc1ccc(Cl)c(C(F)(F)F)c1)N[C@H]1CC[C@H](O)CC1 here?
A: 203 to 207 °C

Q: Which melting point does the source give for CCON1C(C)(C)CC(O)CC1(C)C here?
A: 86 to 88 °C

Q: For CC[C@H](C)C(OCc1ccccc1F)[C@H]1[C@H]([N+](=O)[O-])[C@@H](c2cccs2)N[C@@H]1C(=O)NCCC(=O)O (stereo partly specified), which melting point is on record?
A: 94 to 96 °C

Q: With CCOCc1nc2c(N)nc3ccccc3c2n1CC1CC(c2ccccc2)=NO1 (stereo unspecified) as the compound, how does the melting point read?
A: 235 to 237 °C

Q: Which melting point does the source give for COC(=O)c1ccccc1NC(=O)c1cnc(S(C)(=O)=O)nc1 here?
A: 187 to 189 °C

Q: For COc1ccc2c(c1)Sc1c(cc(OC)c(OC(C)=O)c1Br)N2C(=O)OC(C)OC(C)=O (stereo unspecified), which melting point is on record?
A: 134 to 135 °C

Q: For CCN1CNC(=O)NC1=O, which melting point is on record?
A: 220 to 224 °C

Q: For O=C1CCCC(=O)C1C(=O)c1ccc(OC(F)F)cc1Cl, which melting point is on record?
A: 68 to 72 °C

Q: Which melting point does the source give for CCCc1c(OCCCOc2cccc3c2CCCC3)ccc2c1OC(CCC(=O)O)(CCC(=O)OCC)CC2=O (stereo unspecified) here?
A: 83.5 to 84.5 °C

Q: For CC(=O)OCC(=O)C1(OC(=O)c2ccccc2)CCC2C3CC(C)C4=CC(=O)CCC4(C)C3C(O)CC21C (stereo unspecified), which melting point is on record?
A: 210 °C

Q: Which melting point does the source give for C[C@@H]1Cc2ccsc2[C@H](C)N1CCNC(=O)c1ccc(C#N)cc1 (relative stereo) here?
A: 122 to 124 °C

Q: Which melting point does the source give for Cc1c(NC(=O)c2ccc(OCC3CC3)cc2)ccc2cc(C(C)N3CCCC3)cnc12 (stereo unspecified) here?
A: 162 to 164 °C

Q: For O=CNC1CCc2c([nH]c3ccccc23)C1 (stereo unspecified), which melting point is on record?
A: 123 to 126 °C

Q: With CN1C2CCCC1CC(NC(=O)c1cccc3oc(-c4ccccc4)nc13)C2 (stereo unspecified) as the compound, how does the melting point read?
A: 182 to 185 °C

Q: Which melting point does the source give for COc1ccc(C(=O)c2c(CO[N+](=O)[O-])[nH]c(=O)n2C(C)=O)cc1 here?
A: 165 to 166 °C

Q: Which melting point does the source give for Cc1cn(S(=O)(=O)c2ccc(=O)[nH]n2)c2ccccc12 here?
A: > 220 °C

Q: With CCCCCCCCCCCCCCCCCCCCC(=S)NCCN1CCOCC1 as the compound, how does the melting point read?
A: 61 °C

Q: With Cc1c(-c2ccccc2)oc2c(C(=O)NCCCl)cccc2c1=O as the compound, how does the melting point read?
A: 181 to 182 °C

Q: Which melting point does the source give for CCOC(=O)c1cnc(-c2ccccc2)nc1Nc1ccccc1N here?
A: 154 to 156 °C

Q: For CN(CC(=O)O)C(=O)CC1=C(n2nc(-c3c(-c4ccccc4)nn4ccccc34)ccc2=O)CCCC1, which melting point is on record?
A: 135 to 138 °C

Q: With CCCCC(NC(=O)OCc1ccccc1)P(C)(=O)O (stereo unspecified) as the compound, how does the melting point read?
A: 134 to 135 °C

Q: For CC(C)(C)c1cc(C#N)c(Nc2ccccc2[N+](=O)[O-])s1, which melting point is on record?
A: 85 to 90 °C

Q: Which melting point does the source give for CS(=O)c1ccc(-n2cnc3ccc(-c4nnc(C5CC5)o4)cc32)cc1 (stereo unspecified) here?
A: 243 to 245 °C

Q: Which melting point does the source give for Cn1c(=O)n2nc(CO)cc2c2ccccc21 here?
A: 183 to 184 °C

Q: For COC(=O)c1ccc(N)cc1O, which melting point is on record?
A: 118 to 120 °C

Q: For CCn1c(=NC(C)=O)c(-c2cc(OC)cc(OC)c2)cc2cnc(SC)nc21, which melting point is on record?
A: 145 to 150 °C

Q: With O=C1CC[C@@H](C(=O)N[C@@H](CSSC[C@H](NC(=O)[C@@H]2CCC(=O)N2)C(=O)O)C(=O)O)N1 as the compound, how does the melting point read?
A: 191 to 193 °C

Q: For CC(=O)O[C@H]1C[C@@H](n2ccc(N)nc2=O)[C@H](O)[C@@H]1O (racemic), which melting point is on record?
A: 121 to 124 °C

Q: With C=C(Cn1ccnc1)c1ccccc1OCc1ccc(-c2ccccc2)cc1 as the compound, how does the melting point read?
A: 90 to 92 °C

Q: For O=c1c2cccc3ncc(c(=O)n1CCCCNS(=O)(=O)CC(F)(F)F)n32, which melting point is on record?
A: 154 to 155 °C

Q: With Cc1cc(Cc2cc(C)cc(C(C)(C)C)c2O)c(O)c(-n2nc3ccccc3n2)c1 as the compound, how does the melting point read?
A: 167 °C

Q: Which melting point does the source give for Cc1ncccc1Oc1ccc(NC(=O)Nc2ccc3[nH]c4c(c3c2)CCN(C(=O)OC(C)(C)C)CC4)cn1 here?
A: 173 to 175 °C

Q: With NC(=O)CCC(C(N)=O)c1ccc(F)cc1 (stereo unspecified) as the compound, how does the melting point read?
A: 154 to 157 °C

Q: Which melting point does the source give for CN1CCN(c2ccc(-c3cnc4[nH]cc(C(=O)N[C@@H](C(=O)N5CC(C#N)C5)C5CC5)c4n3)cc2)CC1 here?
A: 178 to 185 °C

Q: Which melting point does the source give for CCCn1cc2c(C3C(=O)Nc4ccc(Br)cc43)ncnc2n1 (stereo unspecified) here?
A: > 300 °C

Q: For CC(=O)Nc1cc(-n2c(-c3ccccc3)cc3c2CCCC3)cc(C(=O)O)c1O, which melting point is on record?
A: 232 to 234 °C

Q: Which melting point does the source give for O=C1C=CC(=O)N1c1ccc([N+](=O)[O-])cc1 here?
A: 163 to 165 °C

Q: Which melting point does the source give for O=C(O)CCC(=O)N1CCN(c2ccncc2)CC1 here?
A: 261 to 263 °C

Q: For CCOCC1=C(C(=O)OCC)C(c2ccccc2C(F)(F)F)C(C(=O)OCC)=C(C)N1 (stereo unspecified), which melting point is on record?
A: 112 °C

Q: For CC#CCOc1cc(Oc2ccc(F)c(F)c2)ncn1, which melting point is on record?
A: 110 °C

Q: For COc1ccc(O)c(C=O)c1OC, which melting point is on record?
A: 53 to 54 °C

Q: Which melting point does the source give for CC(C(=O)O)c1ccc(-n2cc(Br)cn2)c(Cl)c1 (stereo unspecified) here?
A: 116 to 117 °C

Q: With Cc1coc(N(CCCC(=O)O)C(=O)C(C)C)n1 as the compound, how does the melting point read?
A: 81 to 82 °C

Q: Which melting point does the source give for CN(C)CCCC1(O)c2ccccc2CCn2cccc21 (stereo unspecified) here?
A: 68 to 70 °C
